This is an account of results in ChEMBL document CHEMBL5465560, “Selectivity Literature for EUbOPEN Chemogenomic Library” (2024).

One test concerns the target Cannabinoid receptor 1 (Homo sapiens, UniProt P21554). Put plainly: Selectivity interaction (Eurofins CEREP Diversity Profile (receptors and ion channels)) EUB0000279b CNR1. The following applies: at 10 µM.
The target in test [1] is Serine/threonine-protein kinase B-raf (Homo sapiens) (UniProt P15056). Put plainly: (§1) Selectivity interaction (KinomeScan (DiscoverX)) EUB0000666a BRAF. To be noted: at 10 µM.
The subject of test [2] is Serine/threonine-protein kinase B-raf (Homo sapiens), P15056 [V600E]. The test is described as §1. To be noted: at 10 µM.
Test [3] concerns the target Non-receptor tyrosine-protein kinase TYK2 (Homo sapiens, UniProt P29597). The experiment in a line: Selectivity interaction (KinomeScan (DiscoverX)) EUB0000666a TYK2. The following applies: at 10 µM.
Test [4] has as its target T1, Serine/threonine-protein kinase PLK4 (Homo sapiens) (UniProt O00444).
T1 sequence (whole entry): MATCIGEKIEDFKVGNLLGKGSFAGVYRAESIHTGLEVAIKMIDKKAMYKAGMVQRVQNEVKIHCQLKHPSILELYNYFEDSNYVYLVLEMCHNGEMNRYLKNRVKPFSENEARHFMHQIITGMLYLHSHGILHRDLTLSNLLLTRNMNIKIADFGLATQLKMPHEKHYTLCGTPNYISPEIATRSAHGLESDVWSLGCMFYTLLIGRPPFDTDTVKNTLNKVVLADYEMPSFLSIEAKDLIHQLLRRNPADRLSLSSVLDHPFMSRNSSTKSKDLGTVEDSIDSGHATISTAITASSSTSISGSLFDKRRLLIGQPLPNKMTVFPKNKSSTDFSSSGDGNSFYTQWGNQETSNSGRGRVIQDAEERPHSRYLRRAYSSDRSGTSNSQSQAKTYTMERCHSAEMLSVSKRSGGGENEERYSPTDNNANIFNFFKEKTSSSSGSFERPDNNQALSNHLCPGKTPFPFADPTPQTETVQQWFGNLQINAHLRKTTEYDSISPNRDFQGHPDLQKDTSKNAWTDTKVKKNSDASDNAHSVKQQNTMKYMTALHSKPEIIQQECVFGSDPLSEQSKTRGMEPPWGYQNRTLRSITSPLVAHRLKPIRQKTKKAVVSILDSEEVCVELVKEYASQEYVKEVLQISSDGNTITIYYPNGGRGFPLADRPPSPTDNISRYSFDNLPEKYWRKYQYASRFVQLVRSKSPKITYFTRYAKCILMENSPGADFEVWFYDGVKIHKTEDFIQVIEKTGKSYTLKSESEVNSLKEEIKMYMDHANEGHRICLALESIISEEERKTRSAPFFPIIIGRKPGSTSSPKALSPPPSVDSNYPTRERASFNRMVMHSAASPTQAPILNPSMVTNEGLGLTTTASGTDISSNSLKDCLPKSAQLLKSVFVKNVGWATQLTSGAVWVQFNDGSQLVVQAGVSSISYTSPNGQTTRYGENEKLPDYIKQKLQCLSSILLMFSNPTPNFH
The experiment in a line: Selectivity interaction (KinomeScan (DiscoverX)) EUB0000607a PLK4. To be noted: at 10 µM.

Test [5] has as its target T2, Serine/threonine-protein kinase 3 (Homo sapiens) (UniProt Q13188).
T2 sequence (whole entry): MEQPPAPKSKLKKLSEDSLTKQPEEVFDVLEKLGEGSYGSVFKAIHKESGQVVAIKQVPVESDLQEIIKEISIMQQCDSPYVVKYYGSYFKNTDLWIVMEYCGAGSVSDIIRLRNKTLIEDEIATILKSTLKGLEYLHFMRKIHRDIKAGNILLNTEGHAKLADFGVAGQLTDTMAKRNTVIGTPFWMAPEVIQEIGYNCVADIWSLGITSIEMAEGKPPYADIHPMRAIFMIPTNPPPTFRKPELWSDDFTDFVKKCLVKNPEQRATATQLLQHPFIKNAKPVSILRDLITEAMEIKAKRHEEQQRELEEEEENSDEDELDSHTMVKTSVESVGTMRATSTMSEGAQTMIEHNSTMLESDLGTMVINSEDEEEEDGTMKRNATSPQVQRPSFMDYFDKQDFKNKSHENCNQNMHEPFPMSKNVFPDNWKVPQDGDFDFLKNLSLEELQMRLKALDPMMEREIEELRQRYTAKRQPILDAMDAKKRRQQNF
Put plainly: Selectivity interaction (Kinase panel (DSF assay)) EUB0001559a STK3.

In test [6] the target is Serine/threonine-protein kinase ICK (Homo sapiens, UniProt Q9UPZ9). Put plainly: Selectivity interaction (Kinase panel (Invitrogen, enzymatic assay)) EUB0000162b ICK.
For test [7], the system named is CDK12/Cyclin K (Homo sapiens), O75909+Q9NYV4 [R722C]. The experiment in a line: (§2) Selectivity interaction (ProQinase) EUB0000171b CDK12. In kind it is protein-complex assay. The following applies: at 5 µM.
Test [8] concerns the target CDK12/Cyclin K (Homo sapiens) (UniProt O75909+Q9NYV4). The test is described as §2. In kind it is protein-complex assay.
Test [9] deals with Vascular endothelial growth factor receptor 3 (Homo sapiens, UniProt P35916). Put plainly: Selectivity interaction (KinomeScan (DiscoverX)) EUB0000655a FLT4. To be noted: at 10 µM.
Test [10] has as its target AP2-associated protein kinase 1 (Homo sapiens, UniProt Q2M2I8). Put plainly: Selectivity interaction (KinomeScan (DiscoverX)) EUB0000618a AAK1. To be noted: at 10 µM.
The target in test [11] is Calcium/calmodulin-dependent protein kinase type 1D (Homo sapiens) (UniProt Q8IU85). Put plainly: Selectivity interaction (KinomeScan (DiscoverX)) EUB0000618a CAMK1D. To be noted: at 10 µM.
In test [12] the target is Tyrosine-protein kinase Fes/Fps (Homo sapiens) (UniProt P07332). The experiment in a line: Selectivity interaction (Millipore kinase profiler) EUB0000124b FES. The following applies: at 10 µM.

By IC50 is commonly meant the concentration that inhibits the measured activity by half.

Chain of CDK12/Cyclin K (Homo sapiens) (O75909 whole entry, looked up): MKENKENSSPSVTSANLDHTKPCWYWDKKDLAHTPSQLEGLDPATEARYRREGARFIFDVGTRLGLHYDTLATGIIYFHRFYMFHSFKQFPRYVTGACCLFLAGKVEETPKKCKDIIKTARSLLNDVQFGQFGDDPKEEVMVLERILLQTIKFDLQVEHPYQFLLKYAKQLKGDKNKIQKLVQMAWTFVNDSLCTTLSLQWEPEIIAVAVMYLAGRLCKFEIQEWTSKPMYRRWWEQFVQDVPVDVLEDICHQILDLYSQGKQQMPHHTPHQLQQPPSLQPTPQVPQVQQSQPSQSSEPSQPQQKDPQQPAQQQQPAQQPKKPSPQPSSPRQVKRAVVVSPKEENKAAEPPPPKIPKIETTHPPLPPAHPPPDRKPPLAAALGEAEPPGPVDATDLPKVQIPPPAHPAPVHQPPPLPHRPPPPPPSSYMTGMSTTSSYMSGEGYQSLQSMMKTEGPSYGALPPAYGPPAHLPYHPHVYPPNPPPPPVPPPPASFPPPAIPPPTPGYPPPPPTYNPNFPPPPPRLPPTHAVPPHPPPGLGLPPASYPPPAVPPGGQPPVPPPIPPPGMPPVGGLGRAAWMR
Chain of CDK12/Cyclin K (Homo sapiens) (Q9NYV4 whole entry, looked up): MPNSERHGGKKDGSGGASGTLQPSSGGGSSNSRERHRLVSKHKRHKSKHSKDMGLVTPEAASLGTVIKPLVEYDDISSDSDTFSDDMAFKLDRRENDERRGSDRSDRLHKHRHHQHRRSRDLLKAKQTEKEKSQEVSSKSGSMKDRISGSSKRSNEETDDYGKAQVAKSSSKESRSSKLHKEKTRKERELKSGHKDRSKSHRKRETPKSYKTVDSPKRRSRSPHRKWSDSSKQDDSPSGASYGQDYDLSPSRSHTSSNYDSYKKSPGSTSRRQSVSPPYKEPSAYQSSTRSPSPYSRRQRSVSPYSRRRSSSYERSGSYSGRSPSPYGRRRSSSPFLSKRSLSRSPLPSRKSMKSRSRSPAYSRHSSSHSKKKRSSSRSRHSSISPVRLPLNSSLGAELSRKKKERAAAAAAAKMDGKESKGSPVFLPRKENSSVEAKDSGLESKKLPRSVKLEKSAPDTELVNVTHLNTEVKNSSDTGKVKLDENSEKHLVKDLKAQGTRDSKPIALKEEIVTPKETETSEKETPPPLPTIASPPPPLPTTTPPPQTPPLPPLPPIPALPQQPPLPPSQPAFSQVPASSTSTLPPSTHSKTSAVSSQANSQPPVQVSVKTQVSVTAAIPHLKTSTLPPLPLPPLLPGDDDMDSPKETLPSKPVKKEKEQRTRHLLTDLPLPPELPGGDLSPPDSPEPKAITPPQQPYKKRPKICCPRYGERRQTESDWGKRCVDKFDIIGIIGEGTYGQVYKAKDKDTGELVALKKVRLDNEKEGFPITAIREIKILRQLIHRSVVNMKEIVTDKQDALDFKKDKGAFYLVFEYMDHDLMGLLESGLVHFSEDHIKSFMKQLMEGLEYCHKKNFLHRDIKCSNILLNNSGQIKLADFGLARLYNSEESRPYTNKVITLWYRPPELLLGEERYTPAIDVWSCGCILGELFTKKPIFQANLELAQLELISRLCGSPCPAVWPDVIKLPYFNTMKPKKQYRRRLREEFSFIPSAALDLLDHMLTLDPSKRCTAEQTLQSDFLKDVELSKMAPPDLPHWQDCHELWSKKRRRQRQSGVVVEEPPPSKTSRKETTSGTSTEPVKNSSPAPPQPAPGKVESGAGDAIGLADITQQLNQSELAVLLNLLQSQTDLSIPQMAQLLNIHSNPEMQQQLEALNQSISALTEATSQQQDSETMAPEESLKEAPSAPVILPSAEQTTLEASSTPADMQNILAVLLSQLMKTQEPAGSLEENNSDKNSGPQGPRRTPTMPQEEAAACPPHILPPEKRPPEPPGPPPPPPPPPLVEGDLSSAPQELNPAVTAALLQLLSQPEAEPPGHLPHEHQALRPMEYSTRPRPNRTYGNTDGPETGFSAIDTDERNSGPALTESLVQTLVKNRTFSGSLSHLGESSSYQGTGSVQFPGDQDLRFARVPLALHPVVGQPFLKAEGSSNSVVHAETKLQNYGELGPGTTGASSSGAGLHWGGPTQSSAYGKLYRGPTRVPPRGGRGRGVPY
Chain of Tyrosine-protein kinase Fes/Fps (Homo sapiens) (P07332 whole entry): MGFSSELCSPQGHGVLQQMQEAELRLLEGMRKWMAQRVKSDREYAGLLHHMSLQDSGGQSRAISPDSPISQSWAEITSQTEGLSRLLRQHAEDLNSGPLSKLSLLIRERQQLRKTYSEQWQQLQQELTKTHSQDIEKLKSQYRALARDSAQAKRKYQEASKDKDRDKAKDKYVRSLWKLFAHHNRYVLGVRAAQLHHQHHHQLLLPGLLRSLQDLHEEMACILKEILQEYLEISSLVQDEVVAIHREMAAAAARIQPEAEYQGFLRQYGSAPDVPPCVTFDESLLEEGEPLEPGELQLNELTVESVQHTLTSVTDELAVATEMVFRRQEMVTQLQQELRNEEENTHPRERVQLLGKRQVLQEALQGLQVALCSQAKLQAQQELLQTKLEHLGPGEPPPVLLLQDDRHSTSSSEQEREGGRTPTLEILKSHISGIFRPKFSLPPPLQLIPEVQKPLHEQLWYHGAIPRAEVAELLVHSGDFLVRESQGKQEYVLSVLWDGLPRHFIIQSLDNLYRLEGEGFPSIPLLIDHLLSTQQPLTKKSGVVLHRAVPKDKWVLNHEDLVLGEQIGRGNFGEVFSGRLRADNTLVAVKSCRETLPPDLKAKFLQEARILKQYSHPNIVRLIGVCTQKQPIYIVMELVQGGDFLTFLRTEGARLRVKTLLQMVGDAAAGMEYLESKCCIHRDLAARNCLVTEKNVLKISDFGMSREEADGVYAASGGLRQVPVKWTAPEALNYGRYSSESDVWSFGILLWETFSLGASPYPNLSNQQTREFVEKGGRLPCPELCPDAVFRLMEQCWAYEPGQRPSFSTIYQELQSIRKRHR
Chain of Calcium/calmodulin-dependent protein kinase type 1D (Homo sapiens) (Q8IU85 whole entry, looked up): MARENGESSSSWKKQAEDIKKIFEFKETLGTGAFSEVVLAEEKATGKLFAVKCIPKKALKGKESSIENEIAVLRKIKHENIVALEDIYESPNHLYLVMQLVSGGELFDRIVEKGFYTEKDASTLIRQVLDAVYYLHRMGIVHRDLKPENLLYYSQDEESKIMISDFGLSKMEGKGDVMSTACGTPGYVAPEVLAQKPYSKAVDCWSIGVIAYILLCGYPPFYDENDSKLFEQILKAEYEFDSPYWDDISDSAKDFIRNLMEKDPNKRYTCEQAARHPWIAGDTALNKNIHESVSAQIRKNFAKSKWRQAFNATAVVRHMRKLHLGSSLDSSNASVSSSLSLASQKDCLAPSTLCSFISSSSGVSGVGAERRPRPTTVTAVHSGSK
Chain of Serine/threonine-protein kinase B-raf (Homo sapiens) (P15056 whole entry): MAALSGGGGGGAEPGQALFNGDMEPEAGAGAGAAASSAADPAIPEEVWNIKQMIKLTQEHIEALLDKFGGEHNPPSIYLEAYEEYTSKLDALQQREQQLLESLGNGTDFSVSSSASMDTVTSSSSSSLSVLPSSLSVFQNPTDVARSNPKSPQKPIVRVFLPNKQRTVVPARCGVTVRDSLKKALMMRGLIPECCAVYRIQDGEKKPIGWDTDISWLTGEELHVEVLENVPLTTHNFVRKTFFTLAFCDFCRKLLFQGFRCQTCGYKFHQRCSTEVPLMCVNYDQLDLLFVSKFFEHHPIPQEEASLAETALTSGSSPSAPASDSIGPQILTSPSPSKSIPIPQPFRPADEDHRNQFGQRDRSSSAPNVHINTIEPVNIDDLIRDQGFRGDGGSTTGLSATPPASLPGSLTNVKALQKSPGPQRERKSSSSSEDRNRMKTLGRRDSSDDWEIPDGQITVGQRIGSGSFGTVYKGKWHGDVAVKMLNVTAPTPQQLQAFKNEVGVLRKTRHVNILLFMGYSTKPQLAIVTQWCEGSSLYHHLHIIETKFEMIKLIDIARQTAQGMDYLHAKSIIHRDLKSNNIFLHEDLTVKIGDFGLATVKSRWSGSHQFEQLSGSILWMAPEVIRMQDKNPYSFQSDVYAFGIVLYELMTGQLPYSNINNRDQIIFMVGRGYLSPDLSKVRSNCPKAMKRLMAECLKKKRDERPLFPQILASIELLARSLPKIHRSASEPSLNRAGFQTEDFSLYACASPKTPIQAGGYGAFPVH
Chain of Serine/threonine-protein kinase B-raf (Homo sapiens), P15056 [V600E] (P15056 whole entry V600E): as the sequence (P15056 whole entry) above, with V600E counted along it
Chain of AP2-associated protein kinase 1 (Q2M2I8 whole entry, looked up): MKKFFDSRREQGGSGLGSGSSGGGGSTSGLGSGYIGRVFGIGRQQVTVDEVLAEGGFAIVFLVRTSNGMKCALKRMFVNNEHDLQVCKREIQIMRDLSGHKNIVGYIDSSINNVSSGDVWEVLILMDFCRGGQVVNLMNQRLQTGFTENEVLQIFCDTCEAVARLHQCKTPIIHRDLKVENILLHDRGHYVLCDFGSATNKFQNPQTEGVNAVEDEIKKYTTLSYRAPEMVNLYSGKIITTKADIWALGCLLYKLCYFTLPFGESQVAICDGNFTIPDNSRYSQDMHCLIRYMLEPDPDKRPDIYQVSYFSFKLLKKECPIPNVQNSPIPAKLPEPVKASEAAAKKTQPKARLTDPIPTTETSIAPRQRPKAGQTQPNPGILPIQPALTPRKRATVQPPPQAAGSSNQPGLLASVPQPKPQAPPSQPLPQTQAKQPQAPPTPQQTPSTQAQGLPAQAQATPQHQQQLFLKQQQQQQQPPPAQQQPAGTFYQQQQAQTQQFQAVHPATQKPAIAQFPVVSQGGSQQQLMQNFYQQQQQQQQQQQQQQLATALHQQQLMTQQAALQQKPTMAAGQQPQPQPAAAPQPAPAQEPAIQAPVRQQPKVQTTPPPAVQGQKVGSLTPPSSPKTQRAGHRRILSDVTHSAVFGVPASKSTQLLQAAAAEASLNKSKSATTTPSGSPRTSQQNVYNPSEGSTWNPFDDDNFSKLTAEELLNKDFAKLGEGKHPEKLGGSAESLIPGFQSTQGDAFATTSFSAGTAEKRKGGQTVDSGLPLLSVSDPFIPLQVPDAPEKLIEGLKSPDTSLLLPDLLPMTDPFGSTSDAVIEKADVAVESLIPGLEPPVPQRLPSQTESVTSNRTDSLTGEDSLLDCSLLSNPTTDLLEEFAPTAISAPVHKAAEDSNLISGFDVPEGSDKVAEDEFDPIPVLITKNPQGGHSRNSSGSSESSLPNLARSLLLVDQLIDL

`CC(=O)c1cc(-c2ccccc2OCC2CC2)c2ncccn12` registered a % of control at Cannabinoid receptor 1 of 116%.

For the compound `O=C(NOC[C@H](O)CO)c1ccc(F)c(F)c1Nc1ccc(I)cc1F`, the % of control was 98% in test [1], 100% in test [2] and 100% in test [3].

`CNC(=O)Nc1ccc(-c2nc(N3CC4CCC(C3)O4)c3cnn(C4CCC5(CC4)OCCO5)c3n2)cc1` showed a % of control in test [4] of 75%. As for `CN(C(=O)c1cnn2cccnc12)c1cc2c(cc1N1CCOCC1)C(=O)N(C[C@@H](F)C(C)(C)O)C2`, the dTM in test [5] was 1.5 K.

`CN(C)C(=O)Cn1cc(-c2ccc(-c3cncc4ccccc34)cc2)cn1` registered an IC50 in test [6] of 2.39 µM.

With `C=CC(=O)Nc1cccc(C(=O)Nc2ccc(Nc3cc(-c4[nH]c(SC)nc4C)ccn3)cc2)c1`, the % of control is 66% in [7], 93% in test [8] (at 1 µM) and 57% in test [8] (at 5 µM). For `CN(C)CCOc1ccc(-c2nc(-c3ccncc3)c(-c3ccc4c(c3)CC/C4=N\O)[nH]2)cc1`, the % of control in test [9] worked out at 100%. With `O[C@H]1CC[C@H](Nc2ncc3nc(Nc4c(F)cc(F)cc4F)n([C@H]4CCOC4)c3n2)CC1`, the % of control in test [10] is 100%; in test [11], 93%.

Compound `CC(=O)Nc1cccc(-n2c(=O)n(C3CC3)c(=O)c3c(Nc4ccc(I)cc4F)n(C)c(=O)c(C)c32)c1` gave a % of control in [12] of 95%.
